Measurements published in article PMC3950682 (Nucleic Acids Research, 2013).

Target: Bmt5 (Saccharomyces cerevisiae, UniProt P40493)
Experiment: biochemical

Sequence of Bmt5 (P40493 whole entry): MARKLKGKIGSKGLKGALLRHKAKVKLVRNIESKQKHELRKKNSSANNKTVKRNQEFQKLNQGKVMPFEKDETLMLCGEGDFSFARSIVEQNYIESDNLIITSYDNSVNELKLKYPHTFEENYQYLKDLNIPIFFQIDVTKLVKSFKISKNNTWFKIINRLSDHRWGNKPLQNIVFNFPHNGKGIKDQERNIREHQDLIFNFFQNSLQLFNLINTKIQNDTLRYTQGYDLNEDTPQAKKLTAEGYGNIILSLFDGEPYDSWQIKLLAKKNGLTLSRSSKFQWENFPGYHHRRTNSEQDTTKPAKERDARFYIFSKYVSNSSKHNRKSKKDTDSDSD

C[S+](CC[C@H](N)C(=O)O)C[C@H]1O[C@@H](n2cnc3c(N)ncnc32)[C@H](O)[C@@H]1O (stereo partly shown) [SAM]
Kd: 109 ± 10.8 µM
